# Read-outs that look alike come from different tables or passages of the source.
# Key:
# [1] = Form change on heating, dehydration or desolvation (TGA, DSC, variable temperature XRPD); format: physicochemical
# [2] = Competitive water activity experiments; details: whole range of water activity (0≤a.w.≤1)
# [3] = Form change on heating, dehydration or desolvation (TGA, DSC, variable temperature XRPD); format: physicochemical; details: variable temperature XRPD
# Protocol: Relative stability of the anhydrates Form R and Form P was investigated by variable temperature XRPD and competitive equilibration experiments.
# Relative stability of the anhydrates Form B, Form X, Form Y and Form C was investigated by variable temperature XRPD. Form B converted to Form X, Form Y and Form C after heating to 150° C., 176° C. and 180° C., respectively.
# [4] = Equilibration with solvents; format: physicochemical
# Protocol: Obtained suspensions were filtered through a 0.45 μm nylon membrane filter by centrifugation at 14,000 rpm. Solid parts (wet cakes) were investigated by XRPD. For samples with different XRPD patterns, additional analysis including DSC, TGA, ^1H-NMR were performed.
# (§1) Obtained suspensions were filtered through a 0.45 μm nylon membrane filter by centrifugation at 14,000 rpm.
# as §1
# [5] = Competitive equilibration experiments
# Protocol: Relative stability of the anhydrate Forms A, C, H and J was investigated with competitive equilibration experiments.
# Relative stability of the anhydrates Forms C, K and L was investigated with competitive equilibration experiments.
# Relative stability of the anhydrates Form C and Form P was systematically investigated with competitive equilibration experiments.
# About 5 mg of Form C and about 5 mg of Form P were added to 0.25 mL of saturated solutions of selected solvents. Obtained suspensions were stirred at 25° C., 50° C. and 70° C. for 4 days, respectively. Solid parts (wet cakes) were isolated by centrifugation filtration and investigated by XRPD.
# About 10 mg of Form C and about 10 mg of Form P were added to 0.5 mL saturated solutions of selected solvents. Obtained suspensions were stirred at 80/C and 90 C, respectively. Solid parts (wet cakes) were be isolated by centrifugation filtration and investigated by XRPD.
# About 3 mg of the Form P and 3 mg of the mixture of Form P and Form J were added to 0.2 mL of saturated solutions of selected solvents. Obtained suspensions were stirred at 25° C., 50° C. and 70° C. for 4 days, respectively. Solid parts (wet cakes) were isolated by centrifugation filtration and investigated by XRPD.
# About 3 mg of Form P and 3 mg of the physical mixture of Form P and Form R were added to 0.2 mL of saturated solutions of 2-MeTHF. Obtained suspensions were stirred at 25° C., 50° C. and 70° C., respectively. Solid parts (wet cakes) were isolated by centrifugation filtration and investigated by XRPD.
# About 1.5 mg of Form P, 1.5 mg of Form X and 1.5 mg Form Y were added to 0.15 mL saturated solution of 2-MeTHF. Obtained suspensions were stirred at 25° C., 50° C. and 70° C., respectively. Solid parts (wet cake) were isolated by centrifugation filtration and investigated by XRPD.
structure (smiles),measurement,setting,value
"Cc1nc(-c2c[nH]c3c(C#N)cccc23)cnc1OCC(C)(C)O [Form D, 3-(5-(2-hydroxy-2-methylpropoxy)-6-methylpyrazin-2-yl)-1H-indole-7-carbonitrile]",Form after desolvation,[1],converts to Form C
"Cc1nc(-c2c[nH]c3c(C#N)cccc23)cnc1OCC(C)(C)O [Form S, 3-(5-(2-hydroxy-2-methylpropoxy)-6-methylpyrazin-2-yl)-1H-indole-7-carbonitrile]",Relative stability in water activity experiments,[2],converted to anhydrate Form P
"Cc1nc(-c2c[nH]c3c(C#N)cccc23)cnc1OCC(C)(C)O [Form E, 3-(5-(2-hydroxy-2-methylpropoxy)-6-methylpyrazin-2-yl)-1H-indole-7-carbonitrile]",Form after heating,[1]; heating to 100° C. by TGA and cooled to room temperature,converts to physical mixture of Form F and Form G
"Cc1nc(-c2c[nH]c3c(C#N)cccc23)cnc1OCC(C)(C)O [Form B, 3-(5-(2-hydroxy-2-methylpropoxy)-6-methylpyrazin-2-yl)-1H-indole-7-carbonitrile]",Relative stability in water activity experiments,[2],converts to anhydrate Form C
same,Form after heating,[3]; heating to 150° C.,Form X
same,Form after heating,[3]; heating to 176° C.,Form Y
same,Form after heating,[3]; heating to 180° C.,Form C
same,Form after dehydration,[1],converts to Form K
"Cc1nc(-c2c[nH]c3c(C#N)cccc23)cnc1OCC(C)(C)O [Form G, 3-(5-(2-hydroxy-2-methylpropoxy)-6-methylpyrazin-2-yl)-1H-indole-7-carbonitrile]",Form after equilibration,[4]; DMSO/water system at 25° C. for 6 days,converts to anhydrate Form H
"Cc1nc(-c2c[nH]c3c(C#N)cccc23)cnc1OCC(C)(C)O [Form C and Form P, 3-(5-(2-hydroxy-2-methylpropoxy)-6-methylpyrazin-2-yl)-1H-indole-7-carbonitrile]",XRPD after competitive equilibration,"[5]; 1,4-Dioxane, 25° C. for 4 days",Form D
same,XRPD after competitive equilibration,"[5]; 1,4-Dioxane, 50° C. for 4 days",Form D
same,XRPD after competitive equilibration,"[5]; 1,4-Dioxane, 70° C. for 4 days",Form D
same,XRPD after competitive equilibration,"[5]; 2-MeTHF, 25° C. for 4 days",Form P
same,XRPD after competitive equilibration,"[5]; 2-MeTHF, 50° C. for 4 days",Form P
same,XRPD after competitive equilibration,"[5]; 2-MeTHF, 70° C. for 4 days",Form P
same,XRPD after competitive equilibration,"[5]; Acetone, 25° C. for 4 days",Form P
same,XRPD after competitive equilibration,"[5]; Acetone, 50° C. for 4 days",Form P
same,XRPD after competitive equilibration,"[5]; Acetone, 70° C. for 4 days",Form P
same,XRPD after competitive equilibration,"[5]; Acetone/water (v:v = 36:64) a.w = 0.9, 25° C. for 4 days",Form P
same,XRPD after competitive equilibration,"[5]; Acetone/water (v:v = 36:64) a.w = 0.9, 50° C. for 4 days",Form P
same,XRPD after competitive equilibration,"[5]; Acetone/water (v:v = 36:64) a.w = 0.9, 70° C. for 4 days",Form P
same,XRPD after competitive equilibration,"[5]; Acetone/water (v:v = 76.5:23.5) a.w = 0.7, 25° C. for 4 days",Form P
same,XRPD after competitive equilibration,"[5]; Acetone/water (v:v = 76.5:23.5) a.w = 0.7, 50° C. for 4 days",Form P
same,XRPD after competitive equilibration,"[5]; Acetone/water (v:v = 76.5:23.5) a.w = 0.7, 70° C. for 4 days",Form P
same,XRPD after competitive equilibration,"[5]; Acetone/water (v:v = 95.2:4.8) a.w = 0.4, 25° C. for 4 days",Form P
same,XRPD after competitive equilibration,"[5]; Acetone/water (v:v = 95.2:4.8) a.w = 0.4, 50° C. for 4 days",Form P
same,XRPD after competitive equilibration,"[5]; Acetone/water (v:v = 95.2:4.8) a.w = 0.4, 70° C. for 4 days",Form P
same,XRPD after competitive equilibration,"[5]; Acetonitrile, 25° C. for 4 days",Form P
same,XRPD after competitive equilibration,"[5]; Acetonitrile, 50° C. for 4 days",Form P
same,XRPD after competitive equilibration,"[5]; Acetonitrile, 70° C. for 4 days",Form P
same,XRPD after competitive equilibration,"[5]; DCM, 25° C. for 4 days",Form P
same,XRPD after competitive equilibration,"[5]; DMSO/water (v:v = 1:5 a.w. = 0.94), 80° C. for about 6 d",Form P
same,XRPD after competitive equilibration,"[5]; DMSO/water (v:v = 1:5 a.w. = 0.94), 90° C. for about 8 d",Form C (majority) +
same,XRPD after competitive equilibration,"[5]; DMSO/water (v:v = 1:5 a.w. = 0.94), 90° C. for about 18 d",Form C
same,XRPD after competitive equilibration,"[5]; Ethanol, 25° C. for 4 days",Form P
same,XRPD after competitive equilibration,"[5]; Ethanol, 50° C. for 4 days",Form P
same,XRPD after competitive equilibration,"[5]; Ethanol, 70° C. for 4 days",Form P
same,XRPD after competitive equilibration,"[5]; Ethyl acetate, 25° C. for 4 days",Form P
same,XRPD after competitive equilibration,"[5]; Ethyl acetate, 50° C. for 4 days",Form P
same,XRPD after competitive equilibration,"[5]; Ethyl acetate, 70° C. for 4 days",Form P
same,XRPD after competitive equilibration,"[5]; Heptane, 25° C. for 4 days",Form P
same,XRPD after competitive equilibration,"[5]; Heptane, 50° C. for 4 days",Form P
same,XRPD after competitive equilibration,"[5]; Heptane, 70° C. for 4 days",Form P
same,XRPD after competitive equilibration,"[5]; Heptane, 90° C. for about 8 d",Form C + Form P
same,XRPD after competitive equilibration,"[5]; Heptane, 90° C. for about 18 d",Form C + Form P
same,XRPD after competitive equilibration,"[5]; Isopropyl acetate, 25° C. for 4 days",Form P
same,XRPD after competitive equilibration,"[5]; Isopropyl acetate, 50° C. for 4 days",Form P
same,XRPD after competitive equilibration,"[5]; Isopropyl acetate, 70° C. for 4 days",Form P
same,XRPD after competitive equilibration,"[5]; MEK, 25° C. for 4 days",Form P
same,XRPD after competitive equilibration,"[5]; MEK, 50° C. for 4 days",Form P
same,XRPD after competitive equilibration,"[5]; MEK, 70° C. for 4 days",Form P
same,XRPD after competitive equilibration,"[5]; NMP, 25° C. for 4 days","Form Q, NMP"
same,XRPD after competitive equilibration,"[5]; THF, 25° C. for 4 days",Form P
same,XRPD after competitive equilibration,"[5]; THF, 50° C. for 4 days",Form P
same,XRPD after competitive equilibration,"[5]; Toluene, 90° C. for about 8 d",Form C
same,XRPD after competitive equilibration,"[5]; Water, 25° C. for 4 days",Form P
same,XRPD after competitive equilibration,"[5]; Water, 50° C. for 4 days",Form P
same,XRPD after competitive equilibration,"[5]; Water, 70° C. for 4 days",Form P
same,XRPD after competitive equilibration,"[5]; Water, 90° C. for about 8 d",Form C + Form P
same,XRPD after competitive equilibration,"[5]; Water, 90° C. for about 18 d",Form P
"Cc1nc(-c2c[nH]c3c(C#N)cccc23)cnc1OCC(C)(C)O [Form X, 3-(5-(2-hydroxy-2-methylpropoxy)-6-methylpyrazin-2-yl)-1H-indole-7-carbonitrile]",Form conversion (relative stability),"[5]; at 25° C., 50° C. and 70° C.",converts to Form P
"Cc1nc(-c2c[nH]c3c(C#N)cccc23)cnc1OCC(C)(C)O [Form Q, 3-(5-(2-hydroxy-2-methylpropoxy)-6-methylpyrazin-2-yl)-1H-indole-7-carbonitrile]",Form after desolvation,[1]; desolvation by heating to 150° C.,converted to a physical mixture of Form C (majority) and Form Q
"Cc1nc(-c2c[nH]c3c(C#N)cccc23)cnc1OCC(C)(C)O [Form R, 3-(5-(2-hydroxy-2-methylpropoxy)-6-methylpyrazin-2-yl)-1H-indole-7-carbonitrile]",Form conversion (relative stability),[5]; at both 25° C. and 70° C.,converts to Form P
"Cc1nc(-c2c[nH]c3c(C#N)cccc23)cnc1OCC(C)(C)O [Form I, 3-(5-(2-hydroxy-2-methylpropoxy)-6-methylpyrazin-2-yl)-1H-indole-7-carbonitrile]",Form after heating,[1]; heating to 140° C. by TGA and cooled to room temperature,"converted to physical mixture of Form C, Form N and an unknown peak"
"Cc1nc(-c2c[nH]c3c(C#N)cccc23)cnc1OCC(C)(C)O [Form M, 3-(5-(2-hydroxy-2-methylpropoxy)-6-methylpyrazin-2-yl)-1H-indole-7-carbonitrile]",Form after equilibration,[4]; MeOH at 25° C. for another 1 day,converts to Form B
"Cc1nc(-c2c[nH]c3c(C#N)cccc23)cnc1OCC(C)(C)O [Form N, 3-(5-(2-hydroxy-2-methylpropoxy)-6-methylpyrazin-2-yl)-1H-indole-7-carbonitrile]",Relative stability in water activity experiments,[2],converts to Form C
"Cc1nc(-c2c[nH]c3c(C#N)cccc23)cnc1OCC(C)(C)O [Form P + Form X + Form Y, 3-(5-(2-hydroxy-2-methylpropoxy)-6-methylpyrazin-2-yl)-1H-indole-7-carbonitrile]",XRPD after competitive equilibration,"[5]; 2-MeTHF, 25° C. for about 3 days",Form P
same,XRPD after competitive equilibration,"[5]; 2-MeTHF, 50° C. for about 3 days",Form P
same,XRPD after competitive equilibration,"[5]; 2-MeTHF, 70° C. for about 3 days",Form P
"Cc1nc(-c2c[nH]c3c(C#N)cccc23)cnc1OCC(C)(C)O [Form U, 3-(5-(2-hydroxy-2-methylpropoxy)-6-methylpyrazin-2-yl)-1H-indole-7-carbonitrile]",Form after desolvation,[1],converted to Form C
"Cc1nc(-c2c[nH]c3c(C#N)cccc23)cnc1OCC(C)(C)O [Form A, 3-(5-(2-hydroxy-2-methylpropoxy)-6-methylpyrazin-2-yl)-1H-indole-7-carbonitrile]",Form conversion (relative stability),[5]; at both 25° C. and 50° C.,converts to Form C

# Reference: patent publication US20250263396A1, “CRYSTALLINE FORMS OF 3-(5-(2-HYDROXY-2- METHYLPROPOXY)-6-METHYPYRAZIN-2-YL)-1H-INDOLE-7-CARBONITRILE” (NIDO BIOSCIENCES, INC., priority 2024, published 2025)
